# From US20030236407A1, “Perfluoroalkyl group-containing micelle-forming triiodoaromatic compounds, process for their production and their use as contrast media” (Schering AG, priority 2002, published 2003)
# Assay: Critical micelle formation concentration (CMC) by concentration-dependent determination of the surface tension
# Format: physicochemical
# Conditions: aqueous solution; from concentration-dependent surface tension
# Description: The CMC was determined by the concentration-dependent determination of the surface tension. The method is described by, i.a., Elworthy and Mysels; J. Colloid Interface Sci., 21, 331, 1966; Mukerjee, Mysels; The Critical Micelle Conc. Of Aqu. Surfactant Systems, 1971, US National Bureau of Standards and G. Brosowski, M. Rohr, G. Lehmann; Fette, […], Anstrichsmittel [Fats, Soaps, Paints], 75, 335, 1973.
row,Structure (SMILES),Critical Micelle Formation Concentration (CMC)
1,"O=C(O)CN(C(=O)COCC(=O)N1CCN(S(=O)(=O)C(F)(F)C(F)(F)C(F)(F)C(F)(F)C(F)(F)C(F)(F)C(F)(F)C(F)(F)F)CC1)c1c(I)c(C(=O)N(CC(O)CO)CC(O)CO)c(I)c(C(=O)N(CC(O)CO)CC(O)CO)c1I (stereo not drawn) [Example 1 e, [{3,5-Bis-[bis-(2,3-dihydroxy-propyl)-carbamoyl]-2,4,6-triiodo-phenyl}-(2-{2-[4-(heptadecafluorooctane-1-sulfonyl)piperazin-1-yl]-2-oxo-ethoxy}-acetyl)-amino]-acetic Acid]",6.4e-05 mol/L
2,O=C(COCC(=O)N1CCN(S(=O)(=O)C(F)(F)C(F)(F)C(F)(F)C(F)(F)C(F)(F)C(F)(F)C(F)(F)C(F)(F)F)CC1)Nc1c(I)c(C(=O)N(CC(O)CO)CC(O)CO)c(I)c(C(=O)N(CC(O)CO)CC(O)CO)c1I (stereo not drawn) [Example 2 c],6.2e-05 mol/L
3,"O=C(O)CN(C(=O)CCC(=O)N1CCN(S(=O)(=O)C(F)(F)C(F)(F)C(F)(F)C(F)(F)C(F)(F)C(F)(F)C(F)(F)C(F)(F)F)CC1)c1c(I)c(C(=O)N(CC(O)CO)CC(O)CO)c(I)c(C(=O)N(CC(O)CO)CC(O)CO)c1I (stereo not drawn) [Example 3 e, [{3,5-Bis-[bis-(2,3-dihydroxy-propyl)-carbamoyl]-2,4,6-triiodo-phenyl}-{4[4-(heptadecafluorooctane-1-sulfonyl)-piperazin-1-yl]-4-oxo-butyryl}-amino)-acetic Acid]",5.4e-05 mol/L
4,"O=C(CCC(=O)N1CCN(S(=O)(=O)C(F)(F)C(F)(F)C(F)(F)C(F)(F)C(F)(F)C(F)(F)C(F)(F)C(F)(F)F)CC1)Nc1c(I)c(C(=O)N(CC(O)CO)CC(O)CO)c(I)c(C(=O)N(CC(O)CO)CC(O)CO)c1I (stereo not drawn) [Example 4 c, N,N,N′,N′-Tetrakis-(2,3-dihydroxy-propyl)-5-{4-[4-(heptadecafluorooctane-1-sulfonyl)-piperazin-1-yl]-4-oxo-butyrylamino}-2,4,6-triiodo-isophthalamide]",5.4e-05 mol/L
5,"CN(CC(O)C(O)C(O)C(O)CO)C(=O)c1c(I)c(NC(=O)COCC(=O)N2CCN(S(=O)(=O)C(F)(F)C(F)(F)C(F)(F)C(F)(F)C(F)(F)C(F)(F)C(F)(F)C(F)(F)F)CC2)c(I)c(C(=O)N(C)CC(O)C(O)C(O)C(O)CO)c1I (stereo not drawn) [Example 5 f, 2,4,6-Triiodo-N,N′-dimethyl-5-{2-[2-oxo-2-(4-(heptadecafluorooctane-1-sulfonyl)-piperazin-1-yl]-ethoxy]-acetylamino}-N,N′-bis-(2,3,4,5,6-pentahydroxyhexyl)-isophthalamide]",0.00012 mol/L
6,CN(CC(O)C(O)C(O)C(O)CO)C(=O)c1c(I)c(C(=O)N(C)CC(O)C(O)C(O)C(O)CO)c(I)c(N(CC(=O)O)C(=O)COCC(=O)N2CCN(S(=O)(=O)C(F)(F)C(F)(F)C(F)(F)C(F)(F)C(F)(F)C(F)(F)C(F)(F)C(F)(F)F)CC2)c1I (stereo not drawn) [Example 6 e],6.9e-05 mol/L
